# Organism: Rattus norvegicus
# Assay: Open TG-GATES - Regimen: Single
# Format: toxicity, organism-based, Sprague-Dawley
# Parameters: regimen Single, gender Male, age 6 weeks
# Conditions: in vivo, po, route gavage; for gamma-GTP / ALP / ALT / AST / BUN / CRE / Ca / Cl / DBIL / GLC / IP / K / LDH / Na / PL / RALB / TBIL / TC / TG / TP: tissue Plasma; for APTT / Bas / Eos / Fbg / Ht / Lym / MCH / MCHC / MCV / Mono / Neu / PT / Plat / RBC / Ret / WBC: tissue Blood; for KIDNEY_L / KIDNEY_R / KIDNEY_TOTAL: tissue Kidney; for LIVER: tissue Liver
smiles,measurement,setting,value
Cc1cccc(Nc2cc(Cl)nc(SCC(=O)O)n2)c1C [PIRINIXIC ACID],gamma-GTP,"0 mg/kg, 24 h, dose level Control",1.2 IU/L
same,TERMINAL_BW,"10 mg/kg, 3 h, dose level Low",205.8 g
same,APTT,"10 mg/kg, 3 h, dose level Low",14 s
same,Bas,"10 mg/kg, 3 h, dose level Low",0%
same,Eos,"10 mg/kg, 3 h, dose level Low",0.6%
same,Fbg,"10 mg/kg, 3 h, dose level Low",312.8 mg/dL
same,Ht,"10 mg/kg, 3 h, dose level Low",39.2%
same,Lym,"10 mg/kg, 3 h, dose level Low",70.2%
same,MCH,"10 mg/kg, 3 h, dose level Low",21.2 pg
same,MCHC,"10 mg/kg, 3 h, dose level Low",34.1%
same,MCV,"10 mg/kg, 3 h, dose level Low",62.1 fL
same,Mono,"10 mg/kg, 3 h, dose level Low",2.6%
same,Neu,"10 mg/kg, 3 h, dose level Low",26%
same,PT,"10 mg/kg, 3 h, dose level Low",12.2 s
same,Plat,"10 mg/kg, 3 h, dose level Low",125.7 x10_4/uL
same,RBC,"10 mg/kg, 3 h, dose level Low",631.2 x10_4/ul
same,Ret,"10 mg/kg, 3 h, dose level Low",8.2%
same,WBC,"10 mg/kg, 3 h, dose level Low",82.9 x10_2/uL
same,KIDNEY_L,"10 mg/kg, 3 h, dose level Low",0.8 g
same,KIDNEY_R,"10 mg/kg, 3 h, dose level Low",0.9 g
same,KIDNEY_TOTAL,"10 mg/kg, 3 h, dose level Low",1.7 g
same,LIVER,"10 mg/kg, 3 h, dose level Low",8.8 g
same,ALP,"10 mg/kg, 3 h, dose level Low",1833.4 IU/L
same,ALT,"10 mg/kg, 3 h, dose level Low",49 IU/L
same,AST,"10 mg/kg, 3 h, dose level Low",74 IU/L
same,BUN,"10 mg/kg, 3 h, dose level Low",11 mg/dL
same,CRE,"10 mg/kg, 3 h, dose level Low",0.2 mg/dL
same,Ca,"10 mg/kg, 3 h, dose level Low",11.2 mg/dL
same,Cl,"10 mg/kg, 3 h, dose level Low",103.8 meq/L
same,DBIL,"10 mg/kg, 3 h, dose level Low",0.058 mg/dL
same,GLC,"10 mg/kg, 3 h, dose level Low",191 mg/dL
same,IP,"10 mg/kg, 3 h, dose level Low",11.1 mg/dL
same,K,"10 mg/kg, 3 h, dose level Low",4.1 meq/L
same,LDH,"10 mg/kg, 3 h, dose level Low",66.4 IU/L
same,Na,"10 mg/kg, 3 h, dose level Low",139.8 meq/L
same,PL,"10 mg/kg, 3 h, dose level Low",173 mg/dL
same,RALB,"10 mg/kg, 3 h, dose level Low",2.6 g/dL
same,TBIL,"10 mg/kg, 3 h, dose level Low",0.044 mg/dL
same,TC,"10 mg/kg, 3 h, dose level Low",87.6 mg/dL
same,TG,"10 mg/kg, 3 h, dose level Low",161 mg/dL
same,TP,"10 mg/kg, 3 h, dose level Low",5.7 g/dL
same,gamma-GTP,"10 mg/kg, 3 h, dose level Low",1 IU/L
same,TERMINAL_BW,"10 mg/kg, 6 h, dose level Low",203.8 g
same,APTT,"10 mg/kg, 6 h, dose level Low",16 s
same,Bas,"10 mg/kg, 6 h, dose level Low",0%
same,Eos,"10 mg/kg, 6 h, dose level Low",0.6%
same,Fbg,"10 mg/kg, 6 h, dose level Low",266.8 mg/dL
same,Ht,"10 mg/kg, 6 h, dose level Low",39.9%
same,Lym,"10 mg/kg, 6 h, dose level Low",76.2%
same,MCH,"10 mg/kg, 6 h, dose level Low",22 pg
same,MCHC,"10 mg/kg, 6 h, dose level Low",34.3%
same,MCV,"10 mg/kg, 6 h, dose level Low",64.2 fL
same,Mono,"10 mg/kg, 6 h, dose level Low",2%
same,Neu,"10 mg/kg, 6 h, dose level Low",20.6%
same,PT,"10 mg/kg, 6 h, dose level Low",12.4 s
same,Plat,"10 mg/kg, 6 h, dose level Low",111.3 x10_4/uL
same,RBC,"10 mg/kg, 6 h, dose level Low",622.6 x10_4/ul
same,Ret,"10 mg/kg, 6 h, dose level Low",7.5%
same,WBC,"10 mg/kg, 6 h, dose level Low",80 x10_2/uL
same,KIDNEY_L,"10 mg/kg, 6 h, dose level Low",0.9 g
same,KIDNEY_R,"10 mg/kg, 6 h, dose level Low",0.8 g
same,KIDNEY_TOTAL,"10 mg/kg, 6 h, dose level Low",1.7 g
same,LIVER,"10 mg/kg, 6 h, dose level Low",7.9 g
same,ALP,"10 mg/kg, 6 h, dose level Low",1630.4 IU/L
same,ALT,"10 mg/kg, 6 h, dose level Low",43.6 IU/L
same,AST,"10 mg/kg, 6 h, dose level Low",79.2 IU/L
same,BUN,"10 mg/kg, 6 h, dose level Low",10 mg/dL
same,CRE,"10 mg/kg, 6 h, dose level Low",0.2 mg/dL
same,Ca,"10 mg/kg, 6 h, dose level Low",10.8 mg/dL
same,Cl,"10 mg/kg, 6 h, dose level Low",106.2 meq/L
same,DBIL,"10 mg/kg, 6 h, dose level Low",0.028 mg/dL
same,GLC,"10 mg/kg, 6 h, dose level Low",190.2 mg/dL
same,IP,"10 mg/kg, 6 h, dose level Low",10.7 mg/dL
same,K,"10 mg/kg, 6 h, dose level Low",4.1 meq/L
same,LDH,"10 mg/kg, 6 h, dose level Low",55.8 IU/L
same,Na,"10 mg/kg, 6 h, dose level Low",141.8 meq/L
same,RALB,"10 mg/kg, 6 h, dose level Low",2.6 g/dL
same,TBIL,"10 mg/kg, 6 h, dose level Low",0.038 mg/dL
same,TC,"10 mg/kg, 6 h, dose level Low",70.8 mg/dL
same,TG,"10 mg/kg, 6 h, dose level Low",76.8 mg/dL
same,TP,"10 mg/kg, 6 h, dose level Low",5.5 g/dL
same,gamma-GTP,"10 mg/kg, 6 h, dose level Low",1.2 IU/L
same,TERMINAL_BW,"10 mg/kg, 9 h, dose level Low",203.6 g
same,APTT,"10 mg/kg, 9 h, dose level Low",16.8 s
same,Bas,"10 mg/kg, 9 h, dose level Low",0%
same,Eos,"10 mg/kg, 9 h, dose level Low",0.6%
same,Fbg,"10 mg/kg, 9 h, dose level Low",248.4 mg/dL
same,Ht,"10 mg/kg, 9 h, dose level Low",38.9%
same,Lym,"10 mg/kg, 9 h, dose level Low",73.6%
same,MCH,"10 mg/kg, 9 h, dose level Low",21.7 pg
same,MCHC,"10 mg/kg, 9 h, dose level Low",34.5%
same,MCV,"10 mg/kg, 9 h, dose level Low",63 fL
same,Mono,"10 mg/kg, 9 h, dose level Low",2.2%
same,Neu,"10 mg/kg, 9 h, dose level Low",23%
same,PT,"10 mg/kg, 9 h, dose level Low",12.5 s
same,Plat,"10 mg/kg, 9 h, dose level Low",105.9 x10_4/uL
same,RBC,"10 mg/kg, 9 h, dose level Low",618 x10_4/ul
same,Ret,"10 mg/kg, 9 h, dose level Low",7.7%
same,WBC,"10 mg/kg, 9 h, dose level Low",67.5 x10_2/uL
same,KIDNEY_L,"10 mg/kg, 9 h, dose level Low",0.9 g
same,KIDNEY_R,"10 mg/kg, 9 h, dose level Low",0.9 g
same,KIDNEY_TOTAL,"10 mg/kg, 9 h, dose level Low",1.7 g
same,LIVER,"10 mg/kg, 9 h, dose level Low",7.8 g
same,ALP,"10 mg/kg, 9 h, dose level Low",1462.6 IU/L
same,ALT,"10 mg/kg, 9 h, dose level Low",35.4 IU/L
same,AST,"10 mg/kg, 9 h, dose level Low",69.2 IU/L
same,BUN,"10 mg/kg, 9 h, dose level Low",9.4 mg/dL
same,CRE,"10 mg/kg, 9 h, dose level Low",0.2 mg/dL
same,Ca,"10 mg/kg, 9 h, dose level Low",10.6 mg/dL
same,Cl,"10 mg/kg, 9 h, dose level Low",105 meq/L
same,DBIL,"10 mg/kg, 9 h, dose level Low",0.024 mg/dL
same,GLC,"10 mg/kg, 9 h, dose level Low",191.2 mg/dL
same,IP,"10 mg/kg, 9 h, dose level Low",10.6 mg/dL
same,K,"10 mg/kg, 9 h, dose level Low",3.7 meq/L
same,LDH,"10 mg/kg, 9 h, dose level Low",53.2 IU/L
same,Na,"10 mg/kg, 9 h, dose level Low",141.2 meq/L
same,PL,"10 mg/kg, 9 h, dose level Low",121.8 mg/dL
same,RALB,"10 mg/kg, 9 h, dose level Low",2.6 g/dL
same,TBIL,"10 mg/kg, 9 h, dose level Low",0.034 mg/dL
same,TC,"10 mg/kg, 9 h, dose level Low",63.8 mg/dL
same,TG,"10 mg/kg, 9 h, dose level Low",76.6 mg/dL
same,TP,"10 mg/kg, 9 h, dose level Low",5.3 g/dL
same,gamma-GTP,"10 mg/kg, 9 h, dose level Low",1.4 IU/L
same,TERMINAL_BW,"10 mg/kg, 24 h, dose level Low",212.4 g
same,APTT,"10 mg/kg, 24 h, dose level Low",15.7 s
same,Bas,"10 mg/kg, 24 h, dose level Low",0.2%
same,Eos,"10 mg/kg, 24 h, dose level Low",0.8%
same,Fbg,"10 mg/kg, 24 h, dose level Low",217.8 mg/dL
same,Ht,"10 mg/kg, 24 h, dose level Low",38.2%
same,Lym,"10 mg/kg, 24 h, dose level Low",77%
same,MCH,"10 mg/kg, 24 h, dose level Low",21.4 pg
same,MCHC,"10 mg/kg, 24 h, dose level Low",34.2%
same,MCV,"10 mg/kg, 24 h, dose level Low",62.6 fL
same,Mono,"10 mg/kg, 24 h, dose level Low",2.2%
same,Neu,"10 mg/kg, 24 h, dose level Low",19.6%
same,PT,"10 mg/kg, 24 h, dose level Low",12.8 s
same,Plat,"10 mg/kg, 24 h, dose level Low",111.5 x10_4/uL
same,RBC,"10 mg/kg, 24 h, dose level Low",611 x10_4/ul
same,Ret,"10 mg/kg, 24 h, dose level Low",7.3%
same,WBC,"10 mg/kg, 24 h, dose level Low",90.6 x10_2/uL
same,KIDNEY_L,"10 mg/kg, 24 h, dose level Low",0.9 g
same,KIDNEY_R,"10 mg/kg, 24 h, dose level Low",0.9 g
same,KIDNEY_TOTAL,"10 mg/kg, 24 h, dose level Low",1.9 g
same,LIVER,"10 mg/kg, 24 h, dose level Low",10.8 g
same,ALP,"10 mg/kg, 24 h, dose level Low",1927 IU/L
same,ALT,"10 mg/kg, 24 h, dose level Low",47 IU/L
same,AST,"10 mg/kg, 24 h, dose level Low",71.4 IU/L
same,BUN,"10 mg/kg, 24 h, dose level Low",13.6 mg/dL
same,CRE,"10 mg/kg, 24 h, dose level Low",0.2 mg/dL
same,Ca,"10 mg/kg, 24 h, dose level Low",11 mg/dL
same,Cl,"10 mg/kg, 24 h, dose level Low",104.2 meq/L
same,DBIL,"10 mg/kg, 24 h, dose level Low",0.022 mg/dL
same,GLC,"10 mg/kg, 24 h, dose level Low",191.4 mg/dL
same,IP,"10 mg/kg, 24 h, dose level Low",8.7 mg/dL
same,K,"10 mg/kg, 24 h, dose level Low",4 meq/L
same,LDH,"10 mg/kg, 24 h, dose level Low",57 IU/L
same,Na,"10 mg/kg, 24 h, dose level Low",143.2 meq/L
same,PL,"10 mg/kg, 24 h, dose level Low",108.8 mg/dL
same,RALB,"10 mg/kg, 24 h, dose level Low",2.5 g/dL
same,TBIL,"10 mg/kg, 24 h, dose level Low",0.034 mg/dL
same,TC,"10 mg/kg, 24 h, dose level Low",54.8 mg/dL
same,TG,"10 mg/kg, 24 h, dose level Low",49.4 mg/dL
same,TP,"10 mg/kg, 24 h, dose level Low",5.1 g/dL
same,gamma-GTP,"10 mg/kg, 24 h, dose level Low",1 IU/L

# Source: ChEMBL document CHEMBL3885861, “Open TG-GATES”
